Experimental findings from patent publication US8633226B2, “Piperidinyl derivative as a modulator of chemokine receptor activity” (Bristol-Myers Squibb Company, priority 2008, dated 2014) are described below.

Where two headings read alike, the source gives them in different places.

The nature of one series: Protein binding, human. Type of series: in vitro ADME.
Series [1] can be described thus: In vitro metabolism assay, human liver microsomes, Assay Conditions B. The following applies: 10 min, 3 μM, pH 7.4. Type of series: in vitro ADME. On the procedure:
Test compound is received as 20 mM in DMSO. Compound is diluted to create a 300 μM acetonitrile (ACN) solution containing 1.5% DMSO, which is then used as a 100× stock for incubation with microsomes. Each compound is tested in duplicate separately in each of three species in the Metabolic Stability-Human, Rat, Mouse assay suite or individual species in the Metabolic Stability-Dog or Metabolic Stability-Monkey suites. Compound, NADPH and liver microsome solutions are combined for incubation in three steps: • 1. 450 μL of liver microsome suspension, protein concentration of 1 mg/mL in 100 mM NaPi, pH. 7.4, 6.6 mM MgCl2 buffer, are pre-warmed at 37° C. • 2. 5 μl of 300 μM compound (98.5% CAN, 1.5% DMSO) is added to the same tube. • 3. The reaction is initiated by the addition of 50 μl of pre-warmed 5 mM NADPH solution in 100 mM NaPi, pH 7.4.
Reaction components are mixed well and 150 μL removed to quench/stop solution immediately for the zero-minute time point. Reactions are incubated at 37° C. for 10 minutes and then an additional 150 μL removed from incubation. Aliquots removed are combined with 300 μL ACN which contains 100 μM DMN as a UV standard for detection.
Quenched mixtures are centrifuged at 1500 rpm (˜500×g) in an Allegra X-12 centrifuge, SX4750 rotor (Beckman Coulter Inc., Fullerton, Calif.) for fifteen minutes to pellet denatured microsomes. A volume of 110 μl of supernatant extract, containing the mixture of parent compound and its metabolites, is then transferred to a separate 96-well plate for UV-LC/MS-MS analysis to determine the percent of parent compound that is remaining in the mixture.
(Liver microsomes are vesicles of endoplasmic reticulum, rich in cytochrome P450 enzymes.)

The next series deals with hERG (Homo sapiens (Human), UniProt Q12809). Description: hERG patch clamp assay. Type of series: cell-based. The following applies: HEK-293 cells stably expressing hERG, pH 7.4, protein-free buffer, read-out: hERG, % inh @ 30 μM. On the procedure:
Whole-cell patch-clamp was used to directly measure hERG tail currents in HEK-293 cells stably expressing the cloned hERG potassium channel α subunit. Effects of compounds were calculated by measuring inhibition of peak tail current. Experiments were carried out using an aqueous buffer with pH 7.4 at room temperature. There was no protein in the assay buffer. The test concentrations reported are nominal free drug levels.
(The hERG channel carries a current that helps repolarise heart muscle cells.)

In the next series the test system is anesthetized rabbits. Description: Electrocardiography in anesthetized rabbits. The following applies: anesthetized rabbit. Type of series: in vivo. On the procedure: (§1) A dose-response study of test compound was conducted in anesthetized rabbits to assess the cardiac electrophysiologic profile established in the cellular ion channel assays.
(§2) Experiments were performed in propofol-fentanyl anesthetized closed-chest male rabbits. A body surface electrocardiogram (ECG) and an intra-cardiac His-bundle electrogram were continuously monitored and recorded during the studies, using a PoNeMah system and a Prucka electrophysiological recording system, respectively. Test compound was prepared on the day of study in a vehicle of PEG400:ethanol:water (1:1:1) at a dosing concentration of 30 mg/mL. Test compound (n=3) or vehicle (n=3) was given intravenously over 5 minutes via an infusion pump at incremental doses of 3, 10 and 30 mg/kg. The interval between doses was 10 minutes, allowing for a 5-minute test agent infusion and a 5-minute rest period. Blood was sampled at baseline (pre-drug infusion) and immediately at the end of each infusion. For the 30 mg/kg dose, additional blood samples were taken at 10, 20 and 30 minutes after the end of infusion.
(§3) PR interval, QRS duration and QT interval were averaged from a 1 minute ECG recording period at time of blood sampling. QT interval was corrected for heart rate effects using both Fridericia (QTcf) and Van der Water (QTcv) formulae. AH and HV intervals, representing A-V node conduction and His-Purkinje conduction, respectively, were assessed by manual measurements from the His-bundle electrogram. Data were expressed as percent change from pre-drug baseline (mean±SEM) for PR, QRS, AH and HV intervals as well as delta change from the pre-drug infusion baseline (mean±SEM) for QTc intervals. Changes of ≧10% in PR, QRS, and AH intervals, and 20% in HV interval, as well as >10 ms in QTc interval are considered significant based on experience with the model.

Series [2] in a line: Electrocardiography in anesthetized rabbits. The following applies: male, blood, anesthetized rabbit, iv. Type of series: in vivo. On the procedure: as §1, §2, §3
Another series is described as follows: Protein binding, rabbit. Type of series: in vitro ADME.
Series [3] can be described thus: In vitro metabolism assay, human liver microsomes, Assay Conditions A. Type of series: in vitro ADME. The following applies: 0.5 μM compound, 10 minutes, 37° C. The procedure: Test compound is received as a 3.5 mM stock solution in 100 percent DMSO. Compound is diluted to create a 50 μM acetonitrile (ACN) solution containing 1.4% DMSO, which is then used as a 100× stock for incubation with microsomes. Each compound is tested in duplicate separately in each of three species in the Metabolic Stability-Human, Rat, and Mouse assay suite or as individual species in the Metabolic Stability-Dog or Metabolic Stability-Monkey suites. Compound, NADPH and liver microsome solutions are combined for incubation in three steps:
152 μL of liver microsome suspension, protein concentration of 1.1 mg/mL in 100 mM NaPi, pH 7.4, 6.6 mM MgCl2 buffer, is pre-warmed at 37° C.
• 1) 1.7 μL of 50 μM compound (98.6% ACN, 1.4% DMSO) is added to the same tube and pre-incubated at 37° C. for 5 minutes. • 2) The reaction is initiated by the addition of 17 μL of pre-warmed 10 mM NADPH solution in 100 mM NaPi, pH 7.4. • 3) Reaction components are mixed well, and 75 μL are immediately transferred into 150 μl quench/stop solution (zero-time point, T0). Reactions are incubated at 37° C. for 10 minutes and then an additional 75 μL aliquot is transferred into 150 μL quench solution. Acetonitrile containing 100 μM DMN (a UV standard for injection quality control), is used as the quench solution to terminate metabolic reactions. • 4) Quenched mixtures are centrifuged at 1500 rpm (˜500×g) in an Allegra X-12 centrifuge, SX4750 rotor (Beckman Coulter Inc., Fullerton, Calif.) for fifteen minutes to pellet denatured microsomes. A volume of 90 μL of supernatant extract, containing the mixture of parent compound and its metabolites, is then transferred to a separate 96-well plate for UV-LC/MS-MS analysis to determine the percent of parent compound that is remaining in the mixture. • 5)

Sequence of hERG (Q12809 whole entry): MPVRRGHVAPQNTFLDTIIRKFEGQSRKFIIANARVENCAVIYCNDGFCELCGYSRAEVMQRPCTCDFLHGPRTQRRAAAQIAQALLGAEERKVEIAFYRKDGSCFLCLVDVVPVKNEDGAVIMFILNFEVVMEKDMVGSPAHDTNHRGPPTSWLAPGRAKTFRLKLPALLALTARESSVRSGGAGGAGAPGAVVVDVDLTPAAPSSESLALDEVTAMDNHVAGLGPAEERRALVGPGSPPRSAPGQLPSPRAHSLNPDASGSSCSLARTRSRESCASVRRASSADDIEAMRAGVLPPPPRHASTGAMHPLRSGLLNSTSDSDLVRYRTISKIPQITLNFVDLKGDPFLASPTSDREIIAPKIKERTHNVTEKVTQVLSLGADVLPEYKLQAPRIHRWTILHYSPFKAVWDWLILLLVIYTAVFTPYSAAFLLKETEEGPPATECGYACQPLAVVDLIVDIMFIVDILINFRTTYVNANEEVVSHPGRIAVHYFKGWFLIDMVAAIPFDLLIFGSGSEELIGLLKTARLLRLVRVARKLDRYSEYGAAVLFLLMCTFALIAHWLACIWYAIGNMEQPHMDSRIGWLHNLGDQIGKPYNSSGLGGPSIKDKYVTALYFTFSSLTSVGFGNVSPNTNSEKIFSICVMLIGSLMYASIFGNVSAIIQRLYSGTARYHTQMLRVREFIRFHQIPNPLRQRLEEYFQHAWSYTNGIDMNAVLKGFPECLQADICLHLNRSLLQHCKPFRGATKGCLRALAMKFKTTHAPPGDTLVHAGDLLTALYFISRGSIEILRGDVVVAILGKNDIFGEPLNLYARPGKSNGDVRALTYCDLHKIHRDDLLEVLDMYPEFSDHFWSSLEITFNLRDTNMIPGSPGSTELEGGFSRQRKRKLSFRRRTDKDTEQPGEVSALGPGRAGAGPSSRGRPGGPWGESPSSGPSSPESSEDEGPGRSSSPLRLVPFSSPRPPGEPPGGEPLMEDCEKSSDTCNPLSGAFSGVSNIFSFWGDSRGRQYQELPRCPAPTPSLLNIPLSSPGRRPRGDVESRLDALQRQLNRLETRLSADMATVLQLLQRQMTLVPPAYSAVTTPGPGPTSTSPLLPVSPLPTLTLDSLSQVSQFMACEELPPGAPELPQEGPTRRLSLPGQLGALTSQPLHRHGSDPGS

One may read the fraction unbound as free concentration divided by total concentration. A low value points to extensive binding. As for `CC(C)[C@@H](NC(=O)NCC(C)(C)O)C(=O)N1CC[C@](O)(c2ccc(Cl)cc2)C(C)(C)C1` [Compound I], the fraction unbound in the series “Protein binding, human” was 0.19; in “Protein binding, rabbit”, 0.13. Besides, the “Human Liver Microsomal Metabolism % remaining (Assay Conditions B)” value in series [1] was 100% (B). Besides, the inhibition at 30 µM at hERG is 29%. For the same compound, in the series with anesthetized rabbits (iv infusion), the “NOEL dose (No Observed Effect Level)” value is recorded as 10 mg/kg. Also, in the series with anesthetized rabbits (iv infusion), the “QT effect Dose” value was 30 mg/kg. The “QTcf, delta” value with anesthetized rabbits (iv infusion, at QT effect dose 30 mg/kg) was 12 ms. In the series with anesthetized rabbits (iv, 30 mg/kg), the “Cmax: Free drug at QT effect dose” value was determined as 26 µM. In addition, the “Cmax: Free drug at NOEL dose” value in the series on anesthetized rabbits (iv, NOEL dose 10 mg/kg) is 8.5 µM. Moreover, the Cmax was 202 µM in series [2] (30 mg/kg, read-out: Cmax: Total drug at QT effect dose) and 65.2 µM in series [2] (NOEL dose 10 mg/kg, read-out: Cmax: Total drug at NOEL dose).
`CC(C)CC(=O)N[C@@H](C(=O)N1CC[C@](O)(c2ccc(Cl)cc2)C(C)(C)C1)C(C)C` [#466]: the “Human Liver Microsomal Metabolism % remaining (Assay Conditions A)” value in series [3] came to 67%. Moreover, the “Human Liver Microsomal Metabolism % remaining (Assay Conditions B)” value in series [1] is on record as 33%.
Take `CC(C)[C@@H](NC(=O)CC(C)(C)O)C(=O)N1CC[C@](O)(c2ccc(Cl)cc2)C(C)(C)C1` [#1356]: the “Human Liver Microsomal Metabolism % remaining (Assay Conditions A)” value in series [3] is reported as 100% (A)/100% (B). Also, the “Human Liver Microsomal Metabolism % remaining (Assay Conditions B)” value in series [1] is reported as 100% (A)/100% (B).
As to `CC(C)[C@@H](NC(=O)C1CCCC1)C(=O)N1CC[C@](O)(c2ccc(Cl)cc2)C(C)(C)C1` [#460], in series [3], the “Human Liver Microsomal Metabolism % remaining (Assay Conditions A)” value is on record as 47%. For the same compound, in series [1], the “Human Liver Microsomal Metabolism % remaining (Assay Conditions B)” value is on record as 16%.
